Measured values published in US20200392158A1, “INHIBITORS OF LEUCINE RICH REPEAT KINASE 2” (GLAXOSMITHKLINE INTELLECTUAL PROPERTY DEVELOPMENT LIMITED, priority 2017, published 2020).

biological target: T1, full length G2019 human LRRK2 (Homo sapiens, UniProt Q5S007, R50H); assay: Full length G2019 human LRRK2 inhibition mass spectrometry assay; assay type: biochemical; conditions: LRRKtide to phospho-LRRKtide conversion, RapidFire MS, 2 mM ATP
T1 construct: made in house; host or cells: HEK293 6E cells transduced with BacMam virus (virus generated in Sf9 cells)
T1 sequence (Q5S007 with tags, fused parts or gaps R50H): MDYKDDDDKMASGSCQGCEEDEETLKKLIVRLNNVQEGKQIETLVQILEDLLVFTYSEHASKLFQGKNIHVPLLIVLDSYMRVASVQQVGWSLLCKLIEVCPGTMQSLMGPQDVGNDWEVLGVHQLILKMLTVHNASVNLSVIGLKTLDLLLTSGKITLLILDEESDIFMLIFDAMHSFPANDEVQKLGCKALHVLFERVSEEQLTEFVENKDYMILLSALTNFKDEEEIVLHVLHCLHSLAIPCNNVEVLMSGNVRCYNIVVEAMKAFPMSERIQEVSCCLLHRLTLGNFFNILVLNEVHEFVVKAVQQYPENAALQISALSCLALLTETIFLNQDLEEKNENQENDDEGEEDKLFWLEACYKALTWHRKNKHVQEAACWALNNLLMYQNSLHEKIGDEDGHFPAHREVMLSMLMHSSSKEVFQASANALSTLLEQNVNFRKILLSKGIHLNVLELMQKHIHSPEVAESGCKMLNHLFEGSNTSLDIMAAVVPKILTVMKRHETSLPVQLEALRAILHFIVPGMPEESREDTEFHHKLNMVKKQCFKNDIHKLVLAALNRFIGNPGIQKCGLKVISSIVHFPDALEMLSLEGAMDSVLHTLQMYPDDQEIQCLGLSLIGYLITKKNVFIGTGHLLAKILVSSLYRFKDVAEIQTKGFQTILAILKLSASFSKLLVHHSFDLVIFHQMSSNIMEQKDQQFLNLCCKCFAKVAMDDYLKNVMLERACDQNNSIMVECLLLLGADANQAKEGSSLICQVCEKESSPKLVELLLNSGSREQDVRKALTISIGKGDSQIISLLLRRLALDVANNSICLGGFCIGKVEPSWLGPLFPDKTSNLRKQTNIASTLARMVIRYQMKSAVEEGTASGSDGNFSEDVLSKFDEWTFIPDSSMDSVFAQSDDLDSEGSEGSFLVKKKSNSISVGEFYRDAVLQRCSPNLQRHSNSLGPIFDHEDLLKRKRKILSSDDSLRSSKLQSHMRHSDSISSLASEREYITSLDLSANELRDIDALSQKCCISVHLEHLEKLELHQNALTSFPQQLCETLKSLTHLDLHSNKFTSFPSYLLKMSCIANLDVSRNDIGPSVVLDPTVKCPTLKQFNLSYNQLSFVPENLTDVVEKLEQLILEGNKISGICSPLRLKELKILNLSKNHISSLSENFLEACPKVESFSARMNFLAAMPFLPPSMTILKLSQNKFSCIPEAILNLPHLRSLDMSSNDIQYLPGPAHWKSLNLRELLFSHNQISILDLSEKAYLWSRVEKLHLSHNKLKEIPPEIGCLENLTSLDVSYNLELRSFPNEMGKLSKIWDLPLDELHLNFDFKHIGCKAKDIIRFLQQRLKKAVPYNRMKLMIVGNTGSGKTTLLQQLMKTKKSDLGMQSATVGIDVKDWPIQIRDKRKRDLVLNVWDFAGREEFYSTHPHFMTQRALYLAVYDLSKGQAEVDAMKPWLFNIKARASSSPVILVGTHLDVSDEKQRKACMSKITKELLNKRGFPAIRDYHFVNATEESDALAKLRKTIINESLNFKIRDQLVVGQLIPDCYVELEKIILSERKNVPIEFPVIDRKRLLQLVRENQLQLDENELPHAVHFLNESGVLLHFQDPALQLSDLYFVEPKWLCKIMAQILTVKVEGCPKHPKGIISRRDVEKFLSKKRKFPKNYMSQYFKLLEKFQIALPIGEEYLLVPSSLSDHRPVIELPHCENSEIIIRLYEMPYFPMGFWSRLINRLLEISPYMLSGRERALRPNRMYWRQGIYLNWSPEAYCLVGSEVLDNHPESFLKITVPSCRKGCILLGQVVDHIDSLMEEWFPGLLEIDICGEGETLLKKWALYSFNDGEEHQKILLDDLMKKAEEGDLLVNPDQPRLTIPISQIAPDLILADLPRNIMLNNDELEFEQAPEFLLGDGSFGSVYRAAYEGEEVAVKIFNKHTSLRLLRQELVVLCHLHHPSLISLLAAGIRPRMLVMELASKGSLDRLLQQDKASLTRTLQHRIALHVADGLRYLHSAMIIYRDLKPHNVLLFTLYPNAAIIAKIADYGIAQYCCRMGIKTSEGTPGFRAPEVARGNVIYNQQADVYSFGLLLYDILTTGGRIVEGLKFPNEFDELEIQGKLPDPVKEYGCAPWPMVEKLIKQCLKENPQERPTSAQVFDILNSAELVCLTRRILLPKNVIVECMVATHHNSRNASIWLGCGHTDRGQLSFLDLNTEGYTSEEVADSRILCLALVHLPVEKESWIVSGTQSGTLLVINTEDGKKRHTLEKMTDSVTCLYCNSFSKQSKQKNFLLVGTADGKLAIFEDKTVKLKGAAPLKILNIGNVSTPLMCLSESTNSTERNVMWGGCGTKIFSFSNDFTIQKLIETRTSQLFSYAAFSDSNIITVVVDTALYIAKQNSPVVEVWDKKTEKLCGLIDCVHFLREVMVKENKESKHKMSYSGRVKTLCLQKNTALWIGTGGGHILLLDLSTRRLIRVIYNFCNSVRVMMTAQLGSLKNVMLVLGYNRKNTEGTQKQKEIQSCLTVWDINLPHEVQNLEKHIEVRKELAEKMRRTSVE
Method in brief: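 Inhibition taken as reduced LRRKtide phosphorylation, quantified by RapidFire-coupled triple-quadrupole MS as product/(product+substrate) peak area. Reaction: 2 mM ATP, 25 μM peptide, ~25 nM full-length G2019 Flag-LRRK2, Hepes pH 7.2 buffer, room temperature for 1 h. 11-point 1-in-4 dilutions from 100 μM; logistic fit gives IC50, reported as pIC50.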

| SMILES | IC50 |
| --- | --- |
| Cc1c2c(nn1CCN1CCC(F)(F)C1)OCCC(C)Nc1nc(ncc1Cl)N2 (single isomer, unassigned) [E214, 14-Chloro-5-[2-(3,3-difluoropyrrolidin-1-yl)ethyl]-4,11-dimethyl-8-oxa-2,5,6,12,16,17-hexaazatricyclo [11.3.1.0^3,7]heptadeca-1(16),3,6,13(17),14-pentaene] | ≤ 10000 nM |
| Cc1c2c(nn1C1CCOCC1F)OCCC(C)Nc1nc(ncc1Cl)N2 (single isomer, unassigned) [E28, 14-chloro-5-(3-fluorooxan-4-yl)-4,11-dimethyl-8-oxa-2,5,6,12,16,17-hexaazatricyclo [11.3.1.0^3,7]heptadeca-1(17),3,6,13,15-pentaene] | ≤ 100 nM |
| Cc1c2c(nn1C1CCOCC1)OCCC(C)Nc1nc(ncc1C(F)(F)F)N2 (single isomer, unassigned) [E290, 4,11-Dimethyl-5-(oxan-4-yl)-14-(trifluoromethyl) -8-oxa-2,5,6,12,16,17-hexaazatricyclo[11.3.1.0^3,7]heptadeca-1(16),3,6,13(17),14-pentaene] | ≤ 10000 nM |
| Cc1c2c(nn1C1CCOCC1)OCCC(C(F)F)Nc1nc(ncc1Cl)N2 (single isomer, unassigned) [E89, 14-chloro-11-(difluoromethyl)-4-methyl-5-(oxan-4-yl)-8-oxa-2,5,6, 12,16,17-hexaazatricyclo[11.3.1.0^3,7]heptadeca-1(16),3,6,13(17),14-pentaene] | ≤ 10000 nM |
| Cc1c2c(nn1C(C)C1CCOCC1)OCCC(C)Nc1nc(ncc1Cl)N2 (single isomer, unassigned) [E184, 14-Chloro-4,11-dimethyl-5-[1-(oxan-4-yl)ethyl]-8-oxa-2,5,6,12,16,17-hexaazatricyclo[11.3.1.0^3,7]heptadeca-1(16),3,6,13(17),14-pentaene] | ≤ 100 nM |
| COC1CNc2nc(ncc2C(F)(F)F)Nc2c(nn(C3CCOCC3)c2C)OC1 (single isomer, unassigned) [E120, 10-methoxy-4-methyl-5-(oxan-4-yl)-14-(trifluoromethyl)-8-oxa-2,5,6,12,16,17-hexaazatricyclo[11.3.1.0^3,7] heptadeca-1(16),3,6,13(17),14-pentaene] | ≤ 10000 nM |

Further lines, results first:

| IC50 | SMILES |
| --- | --- |
| ≤ 100 nM | Cc1c2c(nn1C1(C(F)(F)F)CCOCC1)OCC[C@@H](C)Nc1nc(ncc1Cl)N2 [E419, (11R)-14-Chloro-4,11-dimethyl-5-[4-(trifluoromethyl)oxan-4-yl]-8-oxa-2,5,6,12,16,17-hexaazatricyclo[11.3.1.0^3,7]heptadeca-1(16),3,6,13(17),14-pentaene] |
| ≤ 100 nM | COCC1CCOc2nn(C3CCOCC3F)c(C)c2Nc2ncc(Cl)c(n2)N1 (single isomer, unassigned) [E354, 14-Chloro-5-(3-fluorooxan-4-yl)-11-(methoxymethyl)-4-methyl-8-oxa-2,5,6,12,16,17-hexaazatricyclo [11.3. 1.0^3,7]heptadeca-1(16),3,6,13(17),14-pentaene] |
| ≤ 100 nM | Cc1c2c(nn1C1COCCC1(F)F)OCC[C@@H](C)Nc1nc(ncc1Cl)N2 (single isomer, unassigned) [E304] |
| ≤ 10000 nM | N#Cc1cnc2nc1NCCCOc1n[nH]c(Cl)c1N2 [E426, 4-Chloro-8-oxa-2,5,6,12,16,17-hexaazatricyclo[11.3.1.0^3,7]heptadeca-1(16),3,6,13(17),14-pentaene-14-carbonitrile] |
| ≤ 100 nM | Cc1c2c(nn1C1CCOCC1(F)F)OCCCNc1nc(ncc1Cl)N2 (single isomer, unassigned) [E414] |
| ≤ 100 nM | Cc1c2c(nn1C1CCOCC1)OCC[C@@H](C)Nc1nc(ncc1F)N2 [E295, (11R)-14-Fluoro-4,11-dimethyl-5-(oxan-4-yl)-8-oxa-2,5,6,12,16,17-hexaazatricyclo[11.3.1.0^3,7]heptadeca-1(16),3,6,13(17),14-pentaene] |
| ≤ 10000 nM | CCN1CCCOc2nn(C3CCOCC3)c(C)c2Nc2ncc(Cl)c1n2 [E360, 14-Chloro-12-ethyl-4-methyl-5-(oxan-4-yl)-8-oxa-2,5,6,12,16,17-hexaazatricyclo[11.3.1.0^3,7]heptadeca-1(16),3,6,13(17),14-pentaene] |
